These results are taken from PMC7762994 (Viruses, 2020).

Where two headings read alike, the source gives them in different places.

The nature of data set [1]: Viability of SW13 cells by nuclei count in the HAZV antiviral assay. The class given is cell-based. Particulars: human, SW13 cells inoculated with HAZV; SW13 cells, nuclei count relative to DMSO, 10 μM, 24 h.
Data set [2] deals with OGG1 (Homo sapiens, UniProt O15527). Kind of data set: In vitro OGG1 activity assay. The class given is biochemical. The note with it: for OGG1 activity (in words): Figure 3A.
Chain of OGG1 (O15527 whole entry): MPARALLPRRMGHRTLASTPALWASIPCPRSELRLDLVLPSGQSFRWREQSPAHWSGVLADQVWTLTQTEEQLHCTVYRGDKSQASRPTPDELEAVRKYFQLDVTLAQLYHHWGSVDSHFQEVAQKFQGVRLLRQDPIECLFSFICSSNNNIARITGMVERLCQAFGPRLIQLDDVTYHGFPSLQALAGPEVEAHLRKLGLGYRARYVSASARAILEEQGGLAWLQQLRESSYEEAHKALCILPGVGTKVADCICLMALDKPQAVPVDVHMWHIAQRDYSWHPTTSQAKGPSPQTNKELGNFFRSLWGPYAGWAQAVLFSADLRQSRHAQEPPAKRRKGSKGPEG
Data set [3] concerns Hazara virus (HAZV). Kind of data set: microbe, parasite or virus in culture. The class given is cell-based. Particulars: SW13, 24 h; for inhibition at 10 µM: read-out: Viral inhibition on primary infection (%).
Data set [4] has as its system SW13 cells. In words: Viability of SW13 cells by nuclei count in the HAZV antiviral assay. The class given is cell-based. Particulars: Homo sapiens.
Data set [5] relates to SARS-CoV-2. It is filed as cell-based.
Data set [6] has as its system Hazara virus (HAZV). In words: microbe, parasite or virus in culture. The class given is cell-based.
Data set [7] concerns EBOV. It is filed as cell-based, Sudan Ebolavirus. Particulars: Vero cells, MOI 0.5, 10 µM, 48 h.
In data set [8] the test system is Huh7 cells. Kind of data set: Cell viability, resazurin assay. It is filed as cell-based. Particulars: Huh7 cells, 24, 48 or 72 h.
Data set [9] concerns CoV 229E. In words: CoV 229E titer in Huh7 cells, end-point dilution assay. It is filed as cell-based, Coronavirus 229E. Particulars: MOI 5, 10 µM, 24 h.
Data set [10] relates to CCHFV. The class given is cell-based, Crimean-Congo hemorrhagic fever virus. The note with it: Vero cells, MOI 1, 10 µM, 48 h.
In data set [11] the test system is Vero cells. Kind of data set: Cell viability, MTT assay. The class given is cell-based. Particulars: 48 h.

As usually defined, the viability is a read-out of living cells in per cent, often relative to untreated cells. Lower therefore signals a greater loss of cells. Usually IC50 stands for the concentration that inhibits the measured activity by half. Broadly, the inhibition is the percentage by which the read-out fell short of the control. `O=C(Nc1ccc(I)cc1)N1CCC(c2c[nH]c3ccccc23)CC1` [TH4448, 4‐(1H‐indol‐3‐yl)‐N‐(4‐iodophenyl)piperidine‐1‐carboxamide] displayed a viability at 24 h, 10 µM in data set [1] of 82%. Also, in data set [2], the IC50 is greater than 99 µM and the “OGG1 activity (in words)” value is “No OGG1 activity”. Also, in data set [3], the inhibition at 10 µM amounted to 98%.

The EC50 is the concentration needed to bring the measured effect to its halfway point. As to `O=C(Nc1ccc(I)cc1)N1CCC(n2c(=O)[nH]c3cc(Cl)ccc32)CC1` [TH3289], the viability at 24 h, 10 µM in data set [1] came to 77%. Also, the EC50 was 46.5 µM in [4] (SW13, 24 h, read-out: EC50 Living cells); 47.5 µM in [4] (HAZV, SW13, MOI 1, 24 h, read-out: Viability (nuclei count) EC50); 14.7 µM in data set [6] (Hazara virus, SW13, read-out: EC50 Viral titer); 18.7 µM in data set [3] (read-out: EC50 Infected cells (primary infection)). For the same molecule, the “reduction of SARS-CoV-2 titer” value in [5] was found to be 58%. In addition, the IC50 in data set [6] (Hazara virus, SW13, 24 h, read-out: Antiviral on titer (µM) IC50 [µM]) was found to be 14.7 µM; in data set [3] (read-out: Antiviral on primary infection IC50 [µM]) it was 18.7 µM. Moreover, the inhibition at 10 µM in [6] (Hazara virus, Vero, 24 h, read-out: Viral inhibition on titer (%)) amounted to 95%; in data set [3] it was 58%. The “reduction of HAZV titer” value in data set [6] (SW13 cells, MOI 1, 10 µM, 24 h) amounted to 94%. In data set [7], the “reduction of EBOV viral titer” value is reported as 40%. In addition, the “toxicity profile, cellular viability by resazurin assay” value in data set [8] is recorded as “favourable toxicity profile”. Also, the “OGG1 activity (in words)” value in [2] is on record as “Micromolar OGG1activity”. For the same molecule, the “reduction of CoV 229E titer” value in data set [9] was determined as 84%. Besides, the “reduction of CCHFV viral titer” value in [10] is listed as 70%. Further, the “toxicity profile, viability by MTT assay” value in [11] is recorded as “favourable toxicity profile”.

With `NC(=O)c1ncn([C@@H]2O[C@H](CO)[C@@H](O)[C@H]2O)n1` [Ribavirin, reference compound], the “reduction of HAZV viral titer” value in data set [6] (100 µM, positive control) is given as 98%.
